The melting point is the temperature of the solid-liquid transition.

The values below come from patent US6977262B2, “Dihydropyrazolopyridine compounds and pharmaceutical use thereof” (Mitsubishi Pharma Corporation, priority 2001, dated 2005).

Consider `CCC1=C(C#N)C(c2ccccc2Br)c2c[nH]nc2N1` (stereo not shown) [Example 199, 4-(2-Bromophenyl)-5-cyano-6-ethyl-4,7-dihydro-2H-pyrazolo[3,4-b]pyridine], for which the melting point is 250 to 253 °C (dec.).
The value for `CCCC1=C(C#N)C(c2ccccc2Cl)c2c(n[nH]c2-c2ccc(OC)cc2)N1` (stereo not shown) [Example 290, 4-(2-Chlorophenyl)-5-cyano-4,7-dihydro-3-(4-methoxyphenyl)-6-propyl-2H-pyrazolo[3,4-b]pyridine] was 284 °C.
The compound `CCCC1=C(C(=O)OCC)C(c2ccc3c(c2)OCCO3)c2c[nH]nc2N1.O=C(O)/C=C\C(=O)O` (stereo not shown) [Example 80, Ethyl 4-(2,3-dihydro-1,4-benzodioxin-6-yl)-4,7-dihydro-6-propyl-2H-pyrazolo[3,4-b]pyridine-5-carboxylate maleate] gave a melting point of 147 to 149 °C.
On to `CCCC1=C(C(=O)OCC)C(c2ccccc2N)c2c[nH]nc2N1` (stereo not shown) [Example 99, Ethyl 4-(2-aminophenyl)-4,7-dihydro-6-propyl-2H-pyrazolo[3,4-b]pyridine-5-carboxylate], for which the melting point stood at 179 °C.
As for `CCCC1=C(C(=O)OCC)C(c2cc(OC)ccc2OC)c2c[nH]nc2N1` (stereo not shown) [Example 53, Ethyl 4-(2,5-dimethoxyphenyl)-4,7-dihydro-6-propyl-2H-pyrazolo[3,4-b]pyridine-5-carboxylate], the figure is 169 to 170 °C.
As for `CC(C)C1=C(C#N)C(c2cccc3nonc23)c2c[nH]nc2N1` (stereo not shown) [Example 264, 4-(2,1,3-Benzoxadiazol-4-yl)-5-cyano-4,7-dihydro-6-isopropyl-2H-pyrazolo[3,4-b]pyridine], the figure is 222 to 223 °C (dec.).
As for `CCOC(=O)C1=C(C(F)(F)F)Nc2n[nH]cc2C1c1ccsc1` (stereo not shown) [Example 23, Ethyl 4,7-dihydro-4-(thiophen-3-yl)-6-trifluoromethyl-2H-pyrazolo[3,4-b]pyridine-5-carboxylate], the figure is 140 to 145 °C; as for `COc1cccc(C2=C(C#N)C(c3ccccc3OC)c3c[nH]nc3N2)c1` (stereo not shown) [Example 152, 5-Cyano-4,7-dihydro-4-(2-methoxyphenyl)-6-(3-methoxyphenyl)-2H-pyrazolo[3,4-b]pyridine], 192 °C; as for `CCCC1=C(C#N)[C@H](c2cccc3nonc23)c2c[nH]nc2N1` [Example 140, R(−) 4-(2,1,3-Benzoxadiazol-4-yl)-5-cyano-4,7-dihydro-6-propyl-2H-pyrazolo[3,4-b]pyridine], 170 °C.
Regarding `CCCC1=C(C#N)C(c2cccc(C)n2)c2c[nH]nc2N1` (stereo not shown) [Example 359, 5-Cyano-4,7-dihydro-4-(6-methylpyridin-2-yl)-6-propyl-2H-pyrazolo[3,4-b]pyridine], the melting point was in the range of 177 to 181 °C.
Compound `CCCC1=C(C#N)C(c2cccc(C#N)c2Cl)c2c[nH]nc2N1` (stereo not shown) [Example 184, 4-(2-Chloro-3-cyanophenyl)-5-cyano-4,7-dihydro-6-propyl-2H-pyrazolo[3,4-b]pyridine] registered a melting point of over 250 °C.
In turn, `N#CC1=C(c2cccs2)Nc2n[nH]cc2C1c1cccc(C#N)c1Br` (stereo not shown) [Example 278, 4-(2-Bromo-3-cyanophenyl)-5-cyano-4,7-dihydro-6-(thiophen-2-yl)-2H-pyrazolo[3,4-b]pyridine] registered a melting point of over 280 °C.
`N#CC1=C(c2ccccc2)Nc2n[nH]cc2C1c1cccc2nonc12` (stereo not shown) [Example 158, 4-(2,1,3-Benzoxadiazol-4-yl)-5-cyano-4,7-dihydro-6-phenyl-2H-pyrazolo[3,4-b]pyridine] came in with a melting point of 231 °C.
With `CCCC1=C(C(=O)OCC)C(c2ccccc2Cl)c2c(n[nH]c2C)N1` (stereo not shown) [Example 230, Ethyl 4-(2-chlorophenyl)-4,7-dihydro-3-methyl-6-propyl-2H-pyrazolo[3,4-b]pyridine-5-carboxylate], the melting point fell in the range of 164 to 165 °C.
`CCOC(=O)C1=C(C(F)(F)F)Nc2n[nH]cc2C1c1ccccc1OC` (stereo not shown) [Example 15, Ethyl 4,7-dihydro-4-(2-methoxyphenyl)-6-trifluoromethyl-2H-pyrazolo[3,4-b]pyridine-5-carboxylate]: the melting point lay in the range of 144 to 146 °C.
The value for `CCOC(=O)C1=C(C)Nc2n[nH]cc2C1c1ccccc1Cl` (stereo not shown) [Example 1, Ethyl 4-(2-chlorophenyl)-4,7-dihydro-6-methyl-2H-pyrazolo[3,4-b]pyridine-5-carboxylate] was 217 to 221 °C; that for `COc1ccc(C2=C(C#N)C(c3ccccc3[N+](=O)[O-])c3c[nH]nc3N2)cc1` (stereo not shown) [Example 157, 5-Cyano-4,7-dihydro-6-(4-methoxyphenyl)-4-(2-nitrophenyl)-2H-pyrazolo[3,4-b]pyridine] was 215 °C; that for `N#CC1=C(C2=CCNCC2)Nc2n[nH]cc2C1c1cccc2nonc12` (stereo not shown) [Example 1013, 4-(2,1,3-Benzoxadiazol-4-yl)-5-cyano-4,7-dihydro-6-(1,2,3,6-tetrahydropyridin-4-yl)-2H-pyrazolo[3,4-b]pyridine] was 180 °C.
As for `CCC1=C(C#N)C(c2cccc(C#N)c2Cl)c2c[nH]nc2N1` (stereo not shown) [Example 195, 4-(2-Chloro-3-cyanophenyl)-5-cyano-6-ethyl-4,7-dihydro-2H-pyrazolo[3,4-b]pyridine], the figure is over 300 °C; as for `CCCC1=C(C(=O)OCC)C(c2cccc(Cl)c2)c2c[nH]nc2N1` (stereo not shown) [Example 234, Ethyl 4-(3-chlorophenyl)-4,7-dihydro-6-propyl-2H-pyrazolo[3,4-b]pyridine-5-carboxylate], 140 to 143 °C.
`CCCC1=C(C(=O)OCC)C(c2ccccc2O)c2c[nH]nc2N1` (stereo not shown) [Example 98, Ethyl 4,7-dihydro-4-(2-hydroxyphenyl)-6-propyl-2H-pyrazolo[3,4-b]pyridine-5-carboxylate] came in with a melting point of 177 °C.
The value for `N#CC1=C(c2cccs2)Nc2n[nH]cc2C1c1cccc(Cl)c1Cl` (stereo not shown) [Example 247, 5-Cyano-4-(2,3-dichlorophenyl)-4,7-dihydro-6-(thiophen-2-yl)-2H-pyrazolo[3,4-b]pyridine] was 232 °C.
Consider `CC(C)(C)C1=C(C#N)C(c2ccccc2Cl)c2c[nH]nc2N1` (stereo not shown) [Example 307, 6-t-Butyl-4-(2-chlorophenyl)-5-cyano-4,7-dihydro-2H-pyrazolo[3,4-b]pyridine], for which the melting point was found to be 198 °C.
As for `COc1ccccc1C1=C(C#N)C(c2cccc3nonc23)c2c[nH]nc2N1` (stereo not shown) [Example 159, 4-(2,1,3-Benzoxadiazol-4-yl)-5-cyano-4,7-dihydro-6-(2-methoxyphenyl)-2H-pyrazolo[3,4-b]pyridine], the figure is 180 °C; as for `CCCC1=C(C#N)C(c2cccc3nonc23)c2cn(C(=O)OC(C)(C)C)nc2N1` (stereo not shown) [Example 288, 4-(2,1,3-Benzoxadiazol-4-yl)-2-tert-butoxycarbonyl-5-cyano-4,7-dihydro-6-propyl-2H-pyrazolo[3,4-b]pyridine], 168 to 170 °C; as for `CCCC1=C(C#N)C(c2ccccc2Br)c2c[nH]nc2N1` (stereo not shown) [Example 128, 4-(2-Bromophenyl)-5-cyano-4,7-dihydro-6-propyl-2H-pyrazolo[3,4-b]pyridine], 237 °C.
The value for `COc1ccc(C2=C(C#N)C(c3ccccc3OC)c3c[nH]nc3N2)cc1` (stereo not shown) [Example 153, 5-Cyano-4,7-dihydro-4-(2-methoxyphenyl)-6-(4-methoxyphenyl)-2H-pyrazolo[3,4-b]pyridine] was 149 °C; that for `COc1ccccc1C1=C(C#N)C(c2ccccc2[N+](=O)[O-])c2c[nH]nc2N1` (stereo not shown) [Example 155, 5-Cyano-4,7-dihydro-6-(2-methoxyphenyl)-4-(2-nitrophenyl)-2H-pyrazolo[3,4-b]pyridine] was 207 °C; that for `N#CC1=C(c2ccsc2)Nc2n[nH]cc2C1c1cccc2nonc12` (stereo not shown) [Example 174, 4-(2,1,3-Benzoxadiazol-4-yl)-5-cyano-4,7-dihydro-6-(thiophen-3-yl)-2H-pyrazolo[3,4-b]pyridine] was 242 °C.
The value for `CC(C)C1=C(C#N)C(c2ccccc2[N+](=O)[O-])c2c[nH]nc2N1` (stereo not shown) [Example 262, 5-Cyano-4,7-dihydro-6-isopropyl-4-(2-nitrophenyl)-2H-pyrazolo[3,4-b]pyridine] was 224 °C.
`CCCC1=C(C(=O)OCC)C(c2ccc3ccccc3c2)c2c[nH]nc2N1.O=C(O)/C=C\C(=O)O` (stereo not shown) [Example 67, Ethyl 4,7-dihydro-4-(naphthalen-2-yl)-6-propyl-2H-pyrazolo[3,4-b]pyridine-5-carboxylate maleate] had a melting point of 136 to 138 °C.
The compound `N#CC1=C(C2CCCCCC2)Nc2n[nH]cc2C1c1ccccc1Cl` (stereo not shown) [Example 312, 4-(2-Chlorophenyl)-5-cyano-6-cycloheptyl-4,7-dihydro-2H-pyrazolo[3,4-b]pyridine] gave a melting point of 146 °C.
The value for `CC(=O)N1CC=C(C2=C(C#N)C(c3cccc4nonc34)c3c[nH]nc3N2)CC1` (stereo not shown) [Example 1027, 6-(1-Acetyl-1,2,3,6-tetrahydropyridin-4-yl)-4-(2,1,3-benzoxadiazol-4-yl)-5-cyano-4,7-dihydro-2H-pyrazolo[3,4-b]-pyridine] was 237 °C; that for `N#CC1=C(c2ccccc2)Nc2n[nH]cc2C1c1cccc2nsnc12` (stereo not shown) [Example 162, 4-(2,1,3-Benzothiadiazol-4-yl)-5-cyano-4,7-dihydro-6-phenyl-2H-pyrazolo[3,4-b]pyridine] was 258 °C; that for `N#CC1=C(C2CC2)Nc2n[nH]cc2C1c1cccc2nonc12` (stereo not shown) [Example 269, 4-(2,1,3-Benzoxadiazol-4-yl)-5-cyano-6-cyclopropyl-4,7-dihydro-2H-pyrazolo[3,4-b]pyridine] was 200 to 201 °C (dec.).
As for `N#CC1=C(C2CCCCCC2)Nc2n[nH]cc2C1c1cccc2nonc12` (stereo not shown) [Example 324, 4-(2,1,3-Benzoxadiazol-4-yl)-5-cyano-6-cycloheptyl-4,7-dihydro-2H-pyrazolo[3,4-b]pyridine], the figure is 228 °C; as for `CCCC1=C(C#N)C(c2ccccc2Cl)c2c(n[nH]c2CCC)N1` (stereo not shown) [Example 302, 4-(2-Chlorophenyl)-5-cyano-4,7-dihydro-3,6-dipropyl-2H-pyrazolo[3,4-b]pyridine], 237 °C.
